From PubChem BioAssay (NCI)
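Where inhibition never reached the appropriate level, the endpoint shown equals the highest concentration tested. Otherwise, values were interpolated linearly from a five-concentration, 48-hour dose response in 96-well plates. GI50: concentration for 50% inhibition of growth. TGI denotes the concentration required for complete inhibition of growth.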

These molecules were tested on SK-OV-3 ovarian (assay: NCI-60 cell line screen, 48 h).
For `CC(C)(C)C(=O)/C=C/c1ccc(Oc2ccccc2)cc1`, the TGI was greater than 100 µM. Work on `CC1=C(C(=O)Nc2c(C)cccc2C)C(c2ccccc2Cl)C(C(=O)Nc2c(C)cccc2C)=C(C)N1` yielded a TGI greater than 100 µM. With `O=C1CSC(Cc2nc3ccccc3[nH]2)=N1` the TGI was 51.3 µM. Work on `COc1ccccc1NC(=O)C1=C(C)NC(C)=C(C(=O)Nc2ccccc2OC)C1c1ccc([N+](=O)[O-])cc1` yielded a TGI greater than 100 µM. In the case of `CCOC(=O)[C@H](CCCNC(=O)OC(C)(C)C)NCc1ccc(OC)c(OC)c1`, the TGI is reported as greater than 100 µM. For `COC(COC(=O)N1CCN(C=O)CC1)C1=C(N2CC2)C(=O)C(C)=C(N2CC2)C1=O` (stereo unspecified), the TGI was 2.11 µM. In the case of `O=C(N/N=C\c1cc(Br)ccc1O)c1ccncc1`, the GI50 is reported as 4.79 µM and the TGI is reported as greater than 100 µM. For `O=C(/C=C/c1c(O)ccc2ccccc12)c1ccc2ccccc2c1`, the TGI was greater than 100 µM. `OCCCCC#Cc1ccccc1C#Cc1cccc(O)c1` gave a GI50 of 19.1 µM and a TGI of 43.3 µM. `O=C(O)c1cccc(OCCO)c1` showed a TGI greater than 100 µM. For `O=[N+]([O-])c1ccc(-n2nnc(C3=NCCCN3)c2-c2ccc(Cl)cc2)cc1`, the TGI was greater than 100 µM. Molecule `COC(=O)C12C3C4C5(C(=O)OC)C(C1C35C(=O)N(C(C)C)C(C)C)C42C(=O)N(C(C)C)C(C)C` (stereo unspecified) has a TGI greater than 50 µM. `N#CC(C#N)=c1[nH]c2cccc3c2-c2c(cccc2c3=C(C#N)C#N)[nH]1` showed a TGI greater than 100 µM. `COC(=O)/C=C/C1C(C(=O)OC)C2(C(=O)OC)CCC1(C(=O)OC)N2` (stereo unspecified) was tested, and the TGI was greater than 100 µM. `N#CC(/C(=N/NC(=O)C(=O)NN)C(=O)NC12CC3CC(CC(C3)C1)C2)c1ccccc1` (stereo unspecified) was tested, and the TGI was greater than 100 µM. Work on `CC(=O)OCC1OC([S-])C(OC(C)=O)C(OC(C)=O)C1OC(C)=O.CC[PH+](CC)CC.CC[PH+](CC)CC.[Au].[Au]` (stereo unspecified) yielded a GI50 of 1.68 µM and a TGI of 3.05 µM. In the case of `Cc1cc(C)n(CCNCCn2nc(C)cc2C)n1`, the TGI is reported as greater than 100 µM. `COc1cc2c(cc1OCc1ccccc1)CNCC2` gave a TGI greater than 100 µM. Work on `O=C(CN1CCCCC1)N1CCc2c([nH]c3ccccc23)C1c1cccnc1` (stereo unspecified) yielded a TGI greater than 100 µM. Molecule `COc1cc2c(cc1OC)C13CCN4CC5=CCOC6CC(=O)N2C1C6C5CC43O` (stereo unspecified) has a TGI greater than 100 µM. For `CCCCCCCCCc1cc(=O)c2c(O)cccc2o1`, the TGI was greater than 100 µM. For `O=C(C[n+]1ccccc1)NNC(=O)/C(=C/c1ccc2c(c1)OCO2)NC(=O)c1ccccc1`, the TGI was greater than 100 µM. With `O=S(O)CCCCSSCc1ccccc1CSSCCCCS(=O)O` the TGI was greater than 100 µM. `Clc1ccc(-c2c(C3=NCCN3)nnn2-c2ccc(Cl)cc2)cc1` was tested, and the TGI was 93.3 µM. Work on `CC(C)(C)N1CC2(CCCCC2)C1=O` yielded a TGI greater than 100 µM. For `O=C(CCC(=O)Nc1cccc(Cl)c1)CC(=O)c1ccc(Cl)cc1`, the TGI was greater than 100 µM. Molecule `O=C(CCCN1CC=C(n2c(=O)[nH]c3ccccc32)CC1)c1ccc(F)cc1` has a GI50 greater than 100 µM and a TGI greater than 100 µM. With `CC(=O)Oc1ccccc1C(=O)N=C1[Se]CCCN1C(=O)c1ccccc1OC(C)=O` the GI50 was 3.4 µM and the TGI was 6.16 µM. Molecule `CC(=O)c1c(CBr)n([O-])c2ccccc2[n+]1=O` has a GI50 of 22.9 µM and a TGI of 71 µM. `COc1ccc(C2C(C#N)=C(N)OC3=C2COc2ccc(F)cc23)cc1OC` (stereo unspecified) was tested, and the GI50 was 37.3 µM and the TGI was greater than 100 µM. Molecule `NC1CCCC[C@H]1N.N[C@@H]1CCCC[C@@H]1N.O=C(P(=O)([O-])[O-])P(=O)([O-])[O-].[Pt+4].[Pt+4]` has a GI50 greater than 100 µM and a TGI greater than 100 µM. Molecule `O=C(CSc1nnc(-c2ccccc2NC(=O)C(F)(F)F)c(=O)[nH]1)NC(=O)Nc1ccccc1` has a TGI greater than 100 µM. `O=C1c2ccn(CCCCNC(CO)(CO)CO)c2C(=O)c2c1c(O)c1ccccc1c2O` gave a GI50 of 7.81 µM and a TGI greater than 47.8 µM. With `CCOC(=O)c1[nH]c(COC(C)=O)c(CCCOC(C)=O)c1CCCOC(C)=O` the TGI was greater than 100 µM. `CCN1C(=O)N(CC)C2C1NC(=S)N2/N=C/C=C/c1cccs1` (stereo unspecified) was tested, and the GI50 was 0.339 µM and the TGI was greater than 100 µM. With `COc1ccc(-c2cc(-c3cccn3C)c(C#N)c(N)n2)cc1OC` the GI50 was greater than 100 µM and the TGI was greater than 100 µM. In the case of `COc1ccc(C(=O)C(CO)Oc2ccccc2OC)cc1OC` (stereo unspecified), the TGI is reported as greater than 100 µM.

These molecules were tested on MCF7 breast (assay: NCI-60 cell line screen, 48 h).
Work on `COc1ccccc1/C=C/c1cnccn1` yielded a TGI greater than 10 µM. `CCCCCc1c(C)[nH]c(/C=C2\N=C(c3ccc[nH]3)C=C2CC)c1C` showed a GI50 of 0.0208 µM and a TGI of 0.106 µM. `Cc1cn2c(/C=C3/C(=O)Nc4ccccc43)c(-c3ccc(Cl)cc3)nc2s1` was tested, and the GI50 was 6.9 µM and the TGI was 19.7 µM. With `COC(COC(=O)N1CCN(C=O)CC1)C1=C(N2CC2)C(=O)C(C)=C(N2CC2)C1=O` (stereo unspecified) the TGI was 1.07 µM. `O=C(N/N=C\c1cc(Br)ccc1O)c1ccncc1` showed a GI50 of 1.55 µM and a TGI of 7.25 µM. `OCCCCC#Cc1ccccc1C#Cc1cccc(O)c1` showed a GI50 of 35.7 µM and a TGI greater than 100 µM. Work on `O=C(O)c1cccc(OCCO)c1` yielded a TGI greater than 100 µM. `COc1cc2c(cc1OC)C13CCN4CC5=CCOC6CC(=O)N2C1C6C5CC43O` (stereo unspecified) showed a TGI greater than 100 µM. Work on `O=C(CCCN1CC=C(n2c(=O)[nH]c3ccccc32)CC1)c1ccc(F)cc1` yielded a GI50 of 31.1 µM and a TGI greater than 100 µM. `CC(=O)Oc1ccccc1C(=O)N=C1[Se]CCCN1C(=O)c1ccccc1OC(C)=O` showed a GI50 of 2.79 µM and a TGI of 10.8 µM. For `COc1ccc(C2C(C#N)=C(N)OC3=C2COc2ccc(F)cc23)cc1OC` (stereo unspecified), the GI50 was 32.9 µM and the TGI was greater than 100 µM. `CCN(CC)CC(C)(C)C(=O)/C=C/c1ccc(Cl)c(Cl)c1` was tested, and the GI50 was 0.959 µM and the TGI was 2.8 µM. Work on `CCN1C(=O)N(CC)C2C1NC(=S)N2/N=C/C=C/c1cccs1` (stereo unspecified) yielded a GI50 of 0.26 µM and a TGI greater than 100 µM. Work on `COc1ccc(-c2cc(-c3cccn3C)c(C#N)c(N)n2)cc1OC` yielded a GI50 of 94.3 µM and a TGI greater than 100 µM.

These molecules were tested on TK-10 renal (assay: NCI-60 cell line screen, 48 h).
Work on `COc1ccccc1/C=C/c1cnccn1` yielded a TGI greater than 10 µM. `CCCCCc1c(C)[nH]c(/C=C2\N=C(c3ccc[nH]3)C=C2CC)c1C` showed a GI50 of less than 0.0155 µM and a TGI of 0.166 µM. `CC(C)(C)C(=O)/C=C/c1ccc(Oc2ccccc2)cc1` showed a TGI of 59.7 µM. `CC1=C(C(=O)Nc2c(C)cccc2C)C(c2ccccc2Cl)C(C(=O)Nc2c(C)cccc2C)=C(C)N1` was tested, and the TGI was greater than 100 µM. With `Cc1cn2c(/C=C3/C(=O)Nc4ccccc43)c(-c3ccc(Cl)cc3)nc2s1` the GI50 was 8.99 µM and the TGI was 17.3 µM. For `O=C1CSC(Cc2nc3ccccc3[nH]2)=N1`, the TGI was 48.1 µM. `COc1ccccc1NC(=O)C1=C(C)NC(C)=C(C(=O)Nc2ccccc2OC)C1c1ccc([N+](=O)[O-])cc1` showed a TGI greater than 100 µM. For `CCOC(=O)[C@H](CCCNC(=O)OC(C)(C)C)NCc1ccc(OC)c(OC)c1`, the TGI was greater than 100 µM. In the case of `COC(COC(=O)N1CCN(C=O)CC1)C1=C(N2CC2)C(=O)C(C)=C(N2CC2)C1=O` (stereo unspecified), the TGI is reported as 2.09 µM. `O=C(/C=C/c1c(O)ccc2ccccc12)c1ccc2ccccc2c1` was tested, and the TGI was greater than 100 µM. In the case of `OCCCCC#Cc1ccccc1C#Cc1cccc(O)c1`, the GI50 is reported as 19.2 µM and the TGI is reported as 38.2 µM. Work on `O=C(O)c1cccc(OCCO)c1` yielded a TGI greater than 100 µM. `O=[N+]([O-])c1ccc(-n2nnc(C3=NCCCN3)c2-c2ccc(Cl)cc2)cc1` was tested, and the TGI was greater than 100 µM. Work on `COC(=O)C12C3C4C5(C(=O)OC)C(C1C35C(=O)N(C(C)C)C(C)C)C42C(=O)N(C(C)C)C(C)C` (stereo unspecified) yielded a TGI greater than 50 µM. `N#CC(C#N)=c1[nH]c2cccc3c2-c2c(cccc2c3=C(C#N)C#N)[nH]1` showed a TGI greater than 100 µM. `COC(=O)/C=C/C1C(C(=O)OC)C2(C(=O)OC)CCC1(C(=O)OC)N2` (stereo unspecified) showed a TGI greater than 100 µM. In the case of `N#CC(/C(=N/NC(=O)C(=O)NN)C(=O)NC12CC3CC(CC(C3)C1)C2)c1ccccc1` (stereo unspecified), the TGI is reported as greater than 100 µM. Molecule `CC(=O)OCC1OC([S-])C(OC(C)=O)C(OC(C)=O)C1OC(C)=O.CC[PH+](CC)CC.CC[PH+](CC)CC.[Au].[Au]` (stereo unspecified) has a GI50 of 0.717 µM and a TGI of 1.69 µM. `Cc1cc(C)n(CCNCCn2nc(C)cc2C)n1` was tested, and the TGI was greater than 100 µM. With `COc1cc2c(cc1OCc1ccccc1)CNCC2` the TGI was greater than 100 µM. In the case of `O=C(CN1CCCCC1)N1CCc2c([nH]c3ccccc23)C1c1cccnc1` (stereo unspecified), the TGI is reported as greater than 100 µM. Work on `COc1cc2c(cc1OC)C13CCN4CC5=CCOC6CC(=O)N2C1C6C5CC43O` (stereo unspecified) yielded a TGI greater than 100 µM. For `CCCCCCCCCc1cc(=O)c2c(O)cccc2o1`, the TGI was greater than 100 µM. Molecule `O=C(C[n+]1ccccc1)NNC(=O)/C(=C/c1ccc2c(c1)OCO2)NC(=O)c1ccccc1` has a TGI greater than 100 µM. In the case of `O=S(O)CCCCSSCc1ccccc1CSSCCCCS(=O)O`, the TGI is reported as greater than 100 µM. `Clc1ccc(-c2c(C3=NCCN3)nnn2-c2ccc(Cl)cc2)cc1` was tested, and the TGI was 69.7 µM. Work on `CC(C)(C)N1CC2(CCCCC2)C1=O` yielded a TGI greater than 100 µM. `O=C(CCC(=O)Nc1cccc(Cl)c1)CC(=O)c1ccc(Cl)cc1` showed a TGI greater than 100 µM. In the case of `O=C(CCCN1CC=C(n2c(=O)[nH]c3ccccc32)CC1)c1ccc(F)cc1`, the GI50 is reported as 87 µM and the TGI is reported as greater than 100 µM.
